Source: ChEMBL document CHEMBL1151669, “Caparratriene, an active sesquiterpene hydrocarbon from Ocotea caparrapi” (J Nat Prod, 1996)
Activity calls are given as the source filed them. No cut-off for these calls is given here.

Assays:
CCRF-CEM [1] = test: Growth inhibition of human CEM cells after 24 hrs by trypan blue staining; type: functional, cell-based
CCRF-CEM [2] = test: Growth inhibition of human CEM cells incubated in presence of light after 24 hrs by trypan blue staining; type: functional, cell-based

With C/C=C(C)/C=C/C[C@H](C)CCC=C(C)C [CAPARRATRIENE] the IC50 (CCRF-CEM [1]) was 3000 nM and the Activity (CCRF-CEM [2]) was “Active”.
